≈ marks a conversion by molar mass, not a printed value. Calls of active or inactive are those of the source. The calls are words filed in the database; no cut-off is given here.
Columns and labels:
Escherichia coli [1] = assay: Antibacterial activity against Escherichia coli NCTC 12923 assessed as growth inhibition at 1 to 50 mg/mL after 24 hr; type: functional, organism-based
Escherichia coli [2] = assay: Antibacterial activity against Escherichia coli NCTC 12923 assessed as growth inhibition at 50 mg/mL after 24 hr; type: functional; conditions: for zone of inhibition at 50000 µg/mL: NCTC 12923, 24 h, read-out: IZ
Staphylococcus aureus [3] = assay: Antibacterial activity against Staphylococcus aureus NCTC 10788 assessed as growth inhibition at 50 mg/mL after 24 hr; type: functional; conditions: for zone of inhibition at 50000 µg/mL: NCTC 10788, 24 h, read-out: IZ
Staphylococcus aureus [4] = assay: Antibacterial activity against Staphylococcus aureus NCTC 10788 assessed as growth inhibition after 24 hr; type: functional; conditions: NCTC 10788, 24 h
[5] = test system: Radical scavenging activity; assay: Antioxidant activity assessed as DPPH radical scavenging activity at 1 mg/mL after 15 min UV-vis spectrophotometric analysis relative to control; type: functional
Bacillus subtilis [6] = assay: Antibacterial activity against Bacillus subtilis NCTC 10400 assessed as growth inhibition at 50 mg/mL after 24 hr; type: functional; conditions: for zone of inhibition at 50000 µg/mL: NCTC 10400, 24 h, read-out: IZ
Candida albicans [7] = assay: Antifungal activity against Candida albicans NCPF 3179 assessed as growth inhibition at 50 mg/mL after 3 days; type: functional; conditions: NCPF 3179, 72 h, read-out: IZ
Bacillus subtilis [8] = assay: Antibacterial activity against Bacillus subtilis NCTC 10400 assessed as growth inhibition after 24 hr; type: functional; conditions: NCTC 10400, 24 h
Staphylococcus aureus [9] = assay: Antibacterial activity against Staphylococcus aureus NCTC 10788 assessed as growth inhibition at 1 to 50 mg/mL after 24 hr; type: functional, organism-based
Candida albicans [10] = assay: Antifungal activity against Candida albicans NCPF 3179 assessed as growth inhibition at 1 to 50 mg/mL after 3 days; type: functional, organism-based
Bacillus subtilis [11] = assay: Antibacterial activity against Bacillus subtilis NCTC 10400 assessed as growth inhibition at 1 to 50 mg/mL after 24 hr; type: functional, organism-based
Candida albicans [12] = assay: Antifungal activity against Candida albicans NCPF 3179 assessed as growth inhibition after 3 days; type: functional; conditions: NCPF 3179, 72 h
Escherichia coli [13] = assay: Antibacterial activity against Escherichia coli NCTC 12923 assessed as growth inhibition after 24 hr; type: functional; conditions: NCTC 12923, 24 h

| Molecule | growth inhibition (GI) (Escherichia coli [1]) | Activity [5] | growth inhibition (GI) (Staphylococcus aureus [9]) | growth inhibition (GI) (Candida albicans [10]) | growth inhibition (GI) (Bacillus subtilis [11]) | other results |
| --- | --- | --- | --- | --- | --- | --- |
| O=[N+]([O-])c1cccc(-c2ccc(C(O)c3cc4cc(-c5cccc([N+](=O)[O-])c5)ccc4o3)cc2)c1 (stereo not given) | inactive | 19.9% | – | – | – | zone of inhibition at 50000 µg/mL (Escherichia coli [2]): 0 mm; zone of inhibition at 50000 µg/mL (Staphylococcus aureus [3]): 6 mm; MIC (Staphylococcus aureus [4]): 500 µg/mL (≈ 1070 µM); zone of inhibition at 50000 µg/mL (Bacillus subtilis [6]): 6 mm; zone of inhibition at 50000 µg/mL (Candida albicans [7]): 0 mm; MIC (Bacillus subtilis [8]): 500 µg/mL (≈ 1070 µM) |
| OC(c1ccc(-c2ccccc2)cc1)c1cc2cc(-c3ccccc3)ccc2o1 (stereo not given) | inactive | 79.5% | inactive | inactive | inactive | – |
| CC(C)C(O)(c1ccc(-c2ccccc2)cc1)c1cc2cc(-c3ccccc3)ccc2o1 (stereo not given) | inactive | 52.3% | inactive | inactive | inactive | – |
| OC(c1ccc(-c2ccccc2F)cc1)c1cc2cc(-c3ccccc3F)ccc2o1 (stereo not given) | inactive | 21.3% | inactive | inactive | inactive | zone of inhibition at 50000 µg/mL (Escherichia coli [2]): 0 mm; zone of inhibition at 50000 µg/mL (Staphylococcus aureus [3]): 0 mm; zone of inhibition at 50000 µg/mL (Bacillus subtilis [6]): 6 mm; zone of inhibition at 50000 µg/mL (Candida albicans [7]): 0 mm; MIC (Bacillus subtilis [8]): 50 µg/mL (≈ 121 µM) |
| CCc1ccc(-c2ccc(C(O)(Cc3ccccc3)c3cc4cc(-c5ccc(CC)cc5)ccc4o3)cc2)cc1 (stereo not given) | inactive | 60.3% | inactive | inactive | inactive | – |
| CCc1ccc(-c2ccc(C(O)(CC)c3cc4cc(-c5ccc(CC)cc5)ccc4o3)cc2)cc1 (stereo not given) | inactive | 55.2% | inactive | inactive | inactive | – |
| Cc1cc(C(C)(C)C)c(O)c(C(C)(C)C)c1 | – | 90.4% | – | – | – | – |
| CCOc1ccccc1-c1ccc(C(O)(CC)c2cc3cc(-c4ccccc4OCC)ccc3o2)cc1 (stereo not given) | inactive | 5.5% | inactive | inactive | inactive | – |
| CCOc1ccccc1-c1ccc(C(O)c2cc3cc(-c4ccccc4OCC)ccc3o2)cc1 (stereo not given) | inactive | 19.3% | inactive | inactive | inactive | – |
| NYSTATIN | – | – | – | – | – | inhibition zone (IZ) (Escherichia coli [2]): 0 mm; inhibition zone (IZ) (Staphylococcus aureus [3]): 0 mm; inhibition zone (IZ) (Bacillus subtilis [6]): 0 mm |
| CCOc1ccccc1-c1ccc(C(=O)c2cc3cc(-c4ccccc4OCC)ccc3o2)cc1 | inactive | 16.1% | inactive | inactive | inactive | – |
| CCOc1ccccc1-c1ccc(C(O)(c2cc3cc(-c4ccccc4OCC)ccc3o2)C(C)(C)C)cc1 (stereo not given) | inactive | 21.2% | inactive | inactive | inactive | – |
| CS(=O)(=O)c1cccc(-c2ccc(C(O)c3cc4cc(-c5cccc(S(C)(=O)=O)c5)ccc4o3)cc2)c1 (stereo not given) | inactive | 39.8% | – | – | – | – |
| CCOc1ccccc1-c1ccc(C(O)(c2cc3cc(-c4ccccc4OCC)ccc3o2)C(C)C)cc1 (stereo not given) | inactive | 11.4% | inactive | inactive | inactive | – |
| CC1(C)S[C@@H]2[C@H](NC(=O)[C@H](N)c3ccccc3)C(=O)N2[C@H]1C(=O)O [AMPICILLIN] | – | – | – | – | – | zone of inhibition at 50000 µg/mL (Escherichia coli [2]): 20 mm; zone of inhibition at 50000 µg/mL (Staphylococcus aureus [3]): 16 mm; zone of inhibition at 50000 µg/mL (Bacillus subtilis [6]): 15 mm; zone of inhibition at 50000 µg/mL (Candida albicans [7]): 0 mm |
| O=C(c1ccc(-c2ccccc2)cc1)c1cc2cc(-c3ccccc3)ccc2o1 | inactive | 7.3% | – | – | – | MIC (Candida albicans [12]): 10 µg/mL (≈ 26.7 µM); zone of inhibition at 50000 µg/mL (Escherichia coli [2]): 0 mm; zone of inhibition at 50000 µg/mL (Staphylococcus aureus [3]): 15 mm; MIC (Staphylococcus aureus [4]): 1 µg/mL (≈ 2.67 µM); zone of inhibition at 50000 µg/mL (Bacillus subtilis [6]): 22 mm; zone of inhibition at 50000 µg/mL (Candida albicans [7]): 10 mm; MIC (Bacillus subtilis [8]): 10 µg/mL (≈ 26.7 µM) |

| Molecule | growth inhibition (GI) (Escherichia coli [1]) | Activity [5] | growth inhibition (GI) (Staphylococcus aureus [9]) | growth inhibition (GI) (Candida albicans [10]) | growth inhibition (GI) (Bacillus subtilis [11]) | other results |
| --- | --- | --- | --- | --- | --- | --- |
| CCc1ccc(-c2ccc(C(O)c3cc4cc(-c5ccc(CC)cc5)ccc4o3)cc2)cc1 (stereo not given) | inactive | 55.7% | inactive | inactive | inactive | – |
| CCC(O)(c1ccc(-c2ccccc2)cc1)c1cc2cc(-c3ccccc3)ccc2o1 (stereo not given) | inactive | 12.9% | inactive | inactive | inactive | – |
| O=C(c1ccc(-c2ccccc2F)cc1)c1cc2cc(-c3ccccc3F)ccc2o1 | inactive | 18.7% | inactive | inactive | inactive | – |
| N#Cc1ccc(Cl)c(-c2ccc(C(=O)c3cc4cc(-c5cc(C#N)ccc5Cl)ccc4o3)cc2)c1 | inactive | 15.8% | inactive | inactive | inactive | – |
| O=C(c1ccc(Br)cc1)c1cc2cc(Br)ccc2o1 | – | 11.7% | – | – | – | MIC (Candida albicans [12]): 50 µg/mL (≈ 132 µM); zone of inhibition at 50000 µg/mL (Escherichia coli [2]): 17 mm; zone of inhibition at 50000 µg/mL (Staphylococcus aureus [3]): 23 mm; MIC (Staphylococcus aureus [4]): 50 µg/mL (≈ 132 µM); MIC (Escherichia coli [13]): 50 µg/mL (≈ 132 µM); zone of inhibition at 50000 µg/mL (Bacillus subtilis [6]): 24 mm; zone of inhibition at 50000 µg/mL (Candida albicans [7]): 15 mm; MIC (Bacillus subtilis [8]): 50 µg/mL (≈ 132 µM) |
| C=Cc1ccc(-c2ccc(C(=O)c3cc4cc(-c5ccc(C=C)cc5)ccc4o3)cc2)cc1 | inactive | 33.7% | – | – | – | MIC (Candida albicans [12]): 500 µg/mL (≈ 1170 µM); zone of inhibition at 50000 µg/mL (Escherichia coli [2]): 0 mm; zone of inhibition at 50000 µg/mL (Staphylococcus aureus [3]): 10 mm; MIC (Staphylococcus aureus [4]): 250 µg/mL (≈ 586 µM); zone of inhibition at 50000 µg/mL (Bacillus subtilis [6]): 16 mm; zone of inhibition at 50000 µg/mL (Candida albicans [7]): 6 mm; MIC (Bacillus subtilis [8]): 50 µg/mL (≈ 117 µM) |
| CC(C)(C)C(O)(c1ccc(-c2ccccc2)cc1)c1cc2cc(-c3ccccc3)ccc2o1 (stereo not given) | inactive | 18.8% | inactive | inactive | inactive | – |
| CCc1ccc(-c2ccc(C(O)(c3cc4cc(-c5ccc(CC)cc5)ccc4o3)C(C)(C)C)cc2)cc1 (stereo not given) | inactive | 24.2% | inactive | inactive | inactive | – |
| OC(Cc1ccccc1)(c1ccc(-c2ccccc2)cc1)c1cc2cc(-c3ccccc3)ccc2o1 (stereo not given) | inactive | 30.5% | inactive | inactive | inactive | – |
| CS(=O)(=O)c1cccc(-c2ccc(C(=O)c3cc4cc(-c5cccc(S(C)(=O)=O)c5)ccc4o3)cc2)c1 | inactive | 12.3% | – | – | – | MIC (Candida albicans [12]): 500 µg/mL (≈ 942 µM); zone of inhibition at 50000 µg/mL (Escherichia coli [2]): 0 mm; zone of inhibition at 50000 µg/mL (Staphylococcus aureus [3]): 0 mm; zone of inhibition at 50000 µg/mL (Bacillus subtilis [6]): 16 mm; zone of inhibition at 50000 µg/mL (Candida albicans [7]): 6 mm; MIC (Bacillus subtilis [8]): 500 µg/mL (≈ 942 µM) |
| CC(=O)c1ccccc1-c1ccc(C(=O)c2cc3cc(-c4ccccc4C(C)=O)ccc3o2)cc1 | inactive | 19% | – | – | – | zone of inhibition at 50000 µg/mL (Escherichia coli [2]): 0 mm; zone of inhibition at 50000 µg/mL (Staphylococcus aureus [3]): 8 mm; MIC (Staphylococcus aureus [4]): 100 µg/mL (≈ 218 µM); zone of inhibition at 50000 µg/mL (Bacillus subtilis [6]): 10 mm; zone of inhibition at 50000 µg/mL (Candida albicans [7]): 0 mm; MIC (Bacillus subtilis [8]): 100 µg/mL (≈ 218 µM) |
| CCOc1ccccc1-c1ccc(C(O)(Cc2ccccc2)c2cc3cc(-c4ccccc4OCC)ccc3o2)cc1 (stereo not given) | inactive | 16.4% | inactive | inactive | inactive | – |
| CCc1ccc(-c2ccc(C(O)(c3cc4cc(-c5ccc(CC)cc5)ccc4o3)C(C)C)cc2)cc1 (stereo not given) | inactive | 34.7% | inactive | inactive | inactive | – |
| O=C(c1ccc(-c2cccc([N+](=O)[O-])c2)cc1)c1cc2cc(-c3cccc([N+](=O)[O-])c3)ccc2o1 | inactive | 19.5% | – | – | – | zone of inhibition at 50000 µg/mL (Escherichia coli [2]): 0 mm; zone of inhibition at 50000 µg/mL (Staphylococcus aureus [3]): 0 mm; zone of inhibition at 50000 µg/mL (Bacillus subtilis [6]): 7 mm; zone of inhibition at 50000 µg/mL (Candida albicans [7]): 0 mm; MIC (Bacillus subtilis [8]): 50 µg/mL (≈ 108 µM) |
| CCc1ccc(-c2ccc(C(=O)c3cc4cc(-c5ccc(CC)cc5)ccc4o3)cc2)cc1 | inactive | 17.3% | – | – | – | – |

— ChEMBL document CHEMBL3045324, “5-phenyl-1-benzofuran-2-yl derivatives: synthesis, antimicrobial, and antioxidant activity” (2013)
